Measured values from paper PMC13179060, “The role of ATP synthase subunit e (ATP5I) in mediating the metabolic and antiproliferative effects of metformin in cancer cells” (eLife, 2026).

T1: ATP synthase subunit e (ATP5I) (Homo sapiens, UniProt P56385)
T1 construct: gene ATP5ME; full-length human ATP5I, N-terminal 6x-His-tagged, expressed in E. coli (mainly oligomers, mostly decamers)
T1 sequence (P56385 1-69): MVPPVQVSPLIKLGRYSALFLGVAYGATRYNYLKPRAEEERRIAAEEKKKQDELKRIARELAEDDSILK

B1: N-terminal 6x-His-tagged ATP5I (ATP synthase subunit e), recombinant (natural protein, human, UniProt P56385 1-69, looked up)
chain: T1 sequence (P56385 1-69)
notes: The vector is pET-TEV; The protein was extracted under denaturing conditions and brought back into native buffer on the column; also called rATP5I; recombinant ATP5I; not shown: His6, N-terminal, kept

What was measured:
[1] = target: T1, ATP synthase subunit e (ATP5I); experiment: SPR, BFB immobilized on streptavidin chip, recombinant ATP5I as analyte, steady-state fit; supported by streptavidin pull-down and immunoblot; type: binding
[2] = target: the molecule itself; experiment: SEC; gel filtration of purified rATP5I (legend: Superose 12 10/300 GL for the profile, Superose 6 10/300 GL for the calibration with thyroglobulin, γ-globulin, myoglobin and vitamin B12)

Molecule | Kd [1] [µM] | stoichiometry N [2]
N=C(N)NC(=N)NCCCCCCNC(=O)CCCCC1SCC2NC(=O)NC21 (centres unmarked) [compound 3, BFB] | ~11.1 | 
B1 |  | 10
